Common to all, as to format: biochemical
Test [1] has as its target T1, α-synuclein fibrils (Homo sapiens, UniProt P37840).
T1 construct: purchased rPeptide, Bogart, Calif
Put plainly: Congo red binding assay, pre-formed α-synuclein fibrils. The note with it: 2-day incubation. The procedure:
In this set of studies, the efficacy of certain compounds provided herein to cause a disassembly/disruption/disaggregation of pre-formed fibrils of Parkinson's disease (i.e. consisting of α-synuclein fibrils) was analyzed. For the studies described below in Parts A and B, 69 μM of α-synuclein (rPeptide, Bogart, Calif.) was first incubated at 37° C. for 4 days in 20 mM sodium acetate buffer at pH 4 with circular shaking (1,300 rpm) to cause α-synuclein aggregation and fibril formation.
In the Congo red binding assay, the ability of a given test compound to alter α-synuclein aggregate binding to Congo red is quantified. In this assay Congo red binds specifically to fibrillar protein, and this binding is directly proportional to the amount of fibrils formed. Following initial α-synuclein fibrilization as described above, α-synuclein aggregates and test compounds were incubated for 2 days and then vacuum filtered through a 0.2 μm filter. The amount of α-synuclein retained in the filter was then quantitated following staining of the filter with Congo red. After appropriate washing of the filter, any lowering of the Congo red color on the filter in the presence of the test compound (compared to the Congo red staining of the protein in the absence of the test compound—i.e. α-synuclein alone) was indicative of the test compound's ability to diminish/alter the amount of aggregated and congophilic α-synuclein and thus cause disassembly/disruption/disaggregation of α-synuclein fibrils.
In one study, the ability of α-synuclein fibrils to bind Congo red following a 2-day incubation of α-synuclein in the absence or presence of increasing amounts of the compounds provided herein, including positive reference (control) compounds (at test compound:α-synuclein molar ratios of 10:1, 1:1, 0.1:1, 0.01:1) was determined. The results of this study indicate that compounds of this invention disrupt/disaggregate/disassemble pre-formed α-synuclein aggregates as indicated by their ability to inhibit Parkinson's disease type α-synuclein fibril binding to Congo red.

Test [2] addresses wild-type α-synuclein (Homo sapiens, UniProt P37840). Put plainly: Thioflavin T fluorometry, inhibition of formation of α-synuclein β-sheet from fresh α-synuclein. The procedure:
To test whether the compounds can inhibit formation of α-synuclein β-sheet, the same assay as described in Example 2, was utilized but the α-synuclein was fresh and not pre-fibrillized. Fresh wild-type α-synuclein was dissolved in a buffer containing 9.5 mM phosphate, 137 mM sodium chloride and 2.7 mM potassium chloride (phosphate-buffered saline; PBS), and the pH was adjusted to pH 7.4. This solution was then lyophilized and dissolved in 1.0 ml deionized water at 0.5 mg/ml (35 μM). As indicated above the test compounds (typically at test compound:α-synuclein molar ratios of 10:1, 1:1, 0.1:1, and 0.01:1) were then added to the α-synuclein. Following 24-38 hours of co-incubation, the incubation mixtures were diluted 1:10 and 50 μl of each diluted incubation mixture was transferred into a 96-well microtiter plate containing 150 μl of distilled water and 50 μl of a Thioflavin T solution (i.e. 500 μM Thioflavin T in 250 mM phosphate buffer, pH 6.8). The final concentration of α-synuclein was 0.7 μM and the concentration of Thioflavin T reagent was 100 μM in 50 mM phosphate buffer, pH 6.8. In some experiments, 200 μl of each diluted incubation mixture was combined in the 96-well microtiter plate with 50 μl of the 500 μM Thioflavin T solution to give 2.8 μM α-synuclein in the presence of 100 μM Thioflavin T reagent. The fluorescence was read at 485 nm (444 nm excitation wavelength) using an ELISA plate fluorometer after subtraction with buffer alone or compound alone, as blank. Positive control compound 1 performed nearly identically in inhibiting α-synuclein aggregation regardless of whether 0.7 μM or 2.8 μM α-synuclein was subsequently used in the Thioflavin T reaction.

The target in test [3] is T2, Aβ 1-42 fibrils (Homo sapiens, UniProt P05067).
T2 construct: pre-fibrillized human Aβ 1-42 (rPeptide); purchased rPeptide
T2 sequence (P05067 672-713 limits assumed): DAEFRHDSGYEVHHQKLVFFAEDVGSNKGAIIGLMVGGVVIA
Put plainly: Thioflavin T fluorometry, disruption of pre-fibrillized Aβ 1-42. The note with it: for Thioflavin T fluorometry % Inhibition: 2-day incubation; for effect against Aβ fibrils/aggregates at substoichiometric concentrations: test compound:Aβ molar ratios of 0.1:1 and 0.05:1. An excerpt:
In this assay Thioflavin T binds specifically to fibrillar amyloid, and this binding produces a fluorescence enhancement at 485 nm that is directly proportional to the amount of amyloid fibrils formed. The higher the fluorescence, the greater the amount of amyloid fibrils formed (Naki et al., Lab. Invest. 65:104-110, 1991; Levine III, Protein Sci. 2:404-410, 1993; Amyloid: Int. J. Exp. Clin. […] The emission fluorescence was read at 485 nm (444 nm excitation wavelength) using an ELISA plate fluorometer after subtraction with buffer alone or compound alone, as blank.

Test [4] concerns the target T2, Aβ 1-42 fibrils. Put plainly: Congo red binding assay, Aβ 1-42 fibrils. The note with it: for Congo Red Binding % Inhibition: 2-day incubation. The procedure:
In the Congo red binding assay the ability of a test compound to alter β-amyloid binding to Congo red is quantified. In this assay, Aβ 1-42 (as prepared for the Thio T assay) and test compounds were incubated for 2 days and then vacuum filtered through a 0.2 μm filter. The amount of Aβ 1-42 retained in the filter was then quantitated following staining of the filter with Congo red. After appropriate washing of the filter, any lowering of the Congo red color on the filter in the presence of the test compound (compared to the Congo red staining of the amyloid protein in the absence of the test compound) was indicative of the test compound's ability to diminish/alter the amount of aggregated and congophilic Aβ.

The mark [5] stands for this setting: compound:peptide molar ratio 0.01:1.
The mark [6] stands for this setting: compound:peptide molar ratio 0.1:1.
The mark [7] stands for this setting: compound:peptide molar ratio 1:1.
Where [8] appears, read: compound:peptide molar ratio 10:1.
Setting [9] is: compound:peptide molar ratio 0.05:1.
The mark [10] stands for this setting: compound:peptide molar ratio 5:1.

Here are results for six compounds from US9169255B2, “Caffeinated compounds and compositions for treatment of amyloid diseases and synucleinopathies” (ProteoTech Inc, priority 2011, dated 2015).

For the compound “1,3-dimethyl-7-(3′,4′-dibenzyloxy)benzyl-8-(3′,4′-dihydroxyphenyl)xanthine [PD-154]”, the “Congo Red Binding- % Inhibition” value in test [1] (setting [5]) was determined as 3%; in test [1] (setting [6]) it was 0%; in test [1] (setting [7]), 12%; in test [1] (setting [8]) it was 0%. Further, the “ThioT Assay % Inhibition” value in test [2] (setting [5]) came out at 8%; in test [2] (setting [6]), 44%; in test [2] (setting [7]), 89%; in test [2] (setting [8]), 89%. Besides, the “Thioflavin T fluorometry % Inhibition” value stood at 43% in test [3] (setting [9]); 36% in test [3] (setting [6]); 60% in test [3] (setting [7]); 74% in test [3] (setting [10]); 80% in test [3] (setting [8]). For the same compound, the “effect against Aβ fibrils/aggregates at substoichiometric concentrations” value in test [3] is “effective”. The “Congo Red Binding % Inhibition” value in test [4] (setting [6]), in test [4] (setting [7]), in test [4] (setting [10]) and in test [4] (setting [8]) was 0% in each case.
In the case of `Cn1cnc2c1c(=O)n(Cc1ccc(O)c(O)c1)c(=O)n2Cc1ccc(O)c(O)c1` [PD-150, 7-Methyl-1,3-bis(3′,4′-dihydroxy)benzylxanthine], in test [1] (setting [8]), the “Congo Red Binding- % Inhibition” value amounted to 35%. Further, the “ThioT Assay % Inhibition” value in test [2] (setting [5]) came to 0%; in test [2] (setting [6]), 0%; in test [2] (setting [7]) it was 22%; in test [2] (setting [8]), 91%. Further, the “Thioflavin T fluorometry % Inhibition” value came to 41% in test [3] (setting [9]); 35% in test [3] (setting [6]); 67% in test [3] (setting [7]); 87% in test [3] (setting [10]); 94% in test [3] (setting [8]). The “effect against Aβ fibrils/aggregates at substoichiometric concentrations” value in test [3] is “effective”. In addition, the “Congo Red Binding % Inhibition” value in test [4] (setting [6]) came to 10%; in test [4] (setting [7]) it was 18%; in test [4] (setting [10]) it was 46%; in test [4] (setting [8]), 60%.
For `Cn1c(=O)n(Cc2ccc(O)c(O)c2)c(=O)c2c1ncn2Cc1ccc(O)c(O)c1` [PD-151, 3-Methyl-1,7-bis(3′,4′-dihydroxybenzyl)xanthine], the “Congo Red Binding- % Inhibition” value turned out to be 3% in test [1] (setting [5]), 1% in test [1] (setting [6]), 6% in test [1] (setting [7]) and 22% in test [1] (setting [8]). Further, the “ThioT Assay % Inhibition” value is 0% in test [2] (setting [5]), 0% in test [2] (setting [6]), 0% in test [2] (setting [7]) and 78% in test [2] (setting [8]). Further, the “Thioflavin T fluorometry % Inhibition” value in test [3] (setting [9]) turned out to be 18%; in test [3] (setting [6]) it was 20%; in test [3] (setting [7]) it was 56%; in test [3] (setting [10]) it was 87%; in test [3] (setting [8]), 94%. For the same compound, the “Congo Red Binding % Inhibition” value in test [4] (setting [6]) is listed as 13%; in test [4] (setting [7]), 12%; in test [4] (setting [10]) it was 47%; in test [4] (setting [8]), 63%.
`Cn1c(=O)c2c(ncn2Cc2ccc(O)c(O)c2)n(Cc2ccc(O)c(O)c2)c1=O` [PD-152]: the “Congo Red Binding- % Inhibition” value in test [1] (setting [5]) is given as 0%; in test [1] (setting [6]) it was 6%; in test [1] (setting [7]), 19%; in test [1] (setting [8]) it was 22%. The “ThioT Assay % Inhibition” value in test [2] (setting [5]) was found to be 0%; in test [2] (setting [6]), 0%; in test [2] (setting [7]), 0%; in test [2] (setting [8]), 72%. The “Thioflavin T fluorometry % Inhibition” value in test [3] (setting [9]) stood at 12%; in test [3] (setting [6]), 13%; in test [3] (setting [7]) it was 54%; in test [3] (setting [10]) it was 87%; in test [3] (setting [8]) it was 91%. Further, the “Congo Red Binding % Inhibition” value in test [4] (setting [6]) was 4%; in test [4] (setting [7]), 21%; in test [4] (setting [10]), 48%; in test [4] (setting [8]), 59%.
Consider `Cn1c(=O)c2c(ncn2C)n(C)c1=O` [Caffeine, reference compound], for which the “Congo Red Binding- % Inhibition” value in test [1] (setting [8]) was 0%. Further, the “ThioT Assay % Inhibition” value in test [2] (setting [5]), in test [2] (setting [6]), in test [2] (setting [7]) and in test [2] (setting [8]) was 0% in each case. Besides, the “inhibition of Aβ 1-42 fibrils (Thioflavin T fluorometry)” value in test [3] (all concentrations tested) is “no significant inhibition”. Also, the results for the “Thioflavin T fluorometry % Inhibition” value in test [3] (setting [7]), in test [3] (setting [10]) and in test [3] (setting [8]) were 0%, 0% and 8%, respectively. For the same compound, in test [4] (all concentrations tested), the “inhibition of Aβ 1-42 fibril binding to Congo red” value is “no significant inhibition”. The “Congo Red Binding % Inhibition” value was found to be 0% in test [4] (setting [7]), 0% in test [4] (setting [10]) and 1% in test [4] (setting [8]).
With `Cn1c(=O)c2c(nc(-c3ccc(O)c(O)c3)n2C)n(C)c1=O` [PD-153, 1,3,7-trimethyl-8-(3′,4′-dihydroxyoxyphenyl)xanthine], the “Congo Red Binding- % Inhibition” value in test [1] (setting [5]) worked out at 1%; in test [1] (setting [6]), 2%; in test [1] (setting [7]) it was 6%; in test [1] (setting [8]), 18%. For the same compound, the “ThioT Assay % Inhibition” value in test [2] (setting [5]) was 13%; in test [2] (setting [6]), 23%; in test [2] (setting [7]), 0%; in test [2] (setting [8]), 80%. Further, the “Thioflavin T fluorometry % Inhibition” value in test [3] (setting [9]) is listed as 5%; in test [3] (setting [6]) it was 0%; in test [3] (setting [7]) it was 6%; in test [3] (setting [10]), 17%; in test [3] (setting [8]), 63%. The “Congo Red Binding % Inhibition” value in test [4] (setting [6]) came to 7%; in test [4] (setting [7]), 20%; in test [4] (setting [10]), 19%; in test [4] (setting [8]), 20%.
